According to patent US20140186875A1, “NOVEL OPTICAL LABELING MOLECULES FOR PROTEOMICS AND OTHER BIOLOGICAL ANALYSIS” (Montana State University, priority 2007, published 2014):

Experiments:
[1] = Optical properties of the dyes (absorbance, emission, extinction coefficient, quantum efficiency); type: physicochemical
[2] = test system: Glutathione S Transferase Omega1—GSTO1; experiment: Differential 2D gel analysis of developing rat brain proteins raised on high and low docosahexaenoic acid; type: in vivo; conditions: DHA enriched diet compared with adequate control diet, cytosolic brain fraction
Protocol: Each forebrain was ground using a pestle and mortar, previously brought to liquid nitrogen temperature in a sealed plastic bag with positive dry nitrogen gas pressure. After grinding of the tissue at liquid nitrogen temperature, […] sample of cell lysis buffer containing 20 mM Bicine, 5 mM magnesium acetate, 0.5% Nonidet P-40 and Roche Complete protease inhibitor—mini EDTA free, were added to about a 100 mg sample and mixed well in a 2 ml microcentrifuge tube. Sample fractionation—Crude nuclear fraction (P1) was removed by sedimentation at 1000×g for 10 min at room temp. The supernatant (S1) was removed and was ultra-centrifuged at 100,000×g at 4° C. for an hour in 2 ml polycarbonate tubes in a swinging bucket rotor. The cytosolic fraction S2 was separated. […] Protein concentrations of the cytosolic and membrane organelle fractions were assessed, using the Bio-Rad RCDC assay. […]
1st dimension separation—the sample was spread in a lane of a Bio-Rad Protean isoelectric focusing (IEF) cell tray, an 18 cm 3-10 non-linear IPG strip, or 3-7, or 6-11 IEF strip was put on top of it, covered with mineral oil and allowed to passively re-hydrate for one hr. […] The IPG strips were then transferred to an Ettan IPGphor and covered with mineral oil for monitored iso-electric focusing as follows, 3:30 hrs 300V, 2:30 hrs 1000V, 2:30 hrs 2500V and 7:30 hrs 3500V. […]

Row | ε [1] | λ(abs) [1] [nm] | λ(ems) [1] [nm] | QE (QY) [1] [%] | Compound | down-regulation of spot 2 (GSTO1) [2] | up-regulation of spot 1 (GSTO1) [2]
1 | 127300 1·cm^−1·mol^−1 | 644 | 657 | 2.9 | CN(CCCCCC(=O)O)CCNC(=O)C(CS(=O)(=O)[O-])NC1=C(/C=C2/N(C)c3ccccc3C2(C)C)C(=O)/C1=C\C1=[N+](C)c2ccccc2C1(C)C (centres unmarked) [Compound 222] | – | –
2 | 101400 1·cm^−1·mol^−1 | 644 | 657 | 2.9 | COc1cc(C(C)O)c([N+](=O)[O-])cc1OCCN(C)CCNC(=O)C(CS(=O)(=O)[O-])NC1=C(/C=C2/N(C)c3ccccc3C2(C)C)C(=O)/C1=C\C1=[N+](C)c2ccccc2C1(C)C (centres unmarked) [Compound 227] | – | –

The next lines start with the compound.

Row | Compound | ε [1] | λ(abs) [1] [nm] | λ(ems) [1] [nm] | QE (QY) [1] [%] | down-regulation of spot 2 (GSTO1) [2] | up-regulation of spot 1 (GSTO1) [2]
3 | CN1/C(=C/C2=C([O-])C(=C/C3=[N+](C)c4ccccc4C3(C)C)/C2=O)C(C)(C)c2ccccc21 [Compound 220] | 280000 1·cm^−1·mol^−1 | 629 | 640 | – | – | –
4 | COc1cc(C(C)OC(=O)Oc2ccc([N+](=O)[O-])cc2)c([N+](=O)[O-])cc1OCCNC(=O)C(CS(=O)(=O)[O-])NC1=C(/C=C2/N(C)c3ccccc3C2(C)C)C(=O)/C1=C\C1=[N+](C)c2ccccc2C1(C)C (centres unmarked) [Compound 230] | 79400 1·cm^−1·mol^−1 | 646 | 661 | 3.3 | – | –
5 | CC/C=C\C/C=C\C/C=C\C/C=C\C/C=C\C/C=C\CCC(=O)O [DHA, Docosahexaenoic acid] | – | – | – | – | 1.7 | 2.5
